We go through 20 compounds from patent US20030194445A1, “Compositions and methods of use of peptides in combination with biocides and/or germicides” (priority 2001, published 2003).

≈ marks a conversion by molar mass, not a printed value. Counter-ions that a name gives are not always drawn. Like-named read-outs stand apart in the source and are kept apart here. *: point of attachment. Octanoyl = CCCCCCCC(=O)*

For assay [1], the system named is microbes such as Salmonella typhimurium and Clostridium botulinum. The assay is classed as cell-based. Particulars: food preservative use.
Assay [2] concerns E. coli ATCC 25922.
The subject of assay [3] is S. cerevisiae ATCC 9763.
In assay [4] the test system is P. aeruginosa ATCC 10145.
The test system of assay [5] is C. albicans ATCC 10231. Description: microbe, parasite or virus in culture. Particulars: Candida albicans, ATCC10231, read-out: Triclosan MIC.
Assay [6] concerns S. aureus ATCC 33591 (MRSA).
For assay [7], the system named is S. cerevisiae ATCC 9763. Description: microbe, parasite or virus in culture. As to conditions: Saccharomyces cerevisiae, ATCC9763, read-out: Triclosan MIC.
Assay [8] relates to E. coli ATCC 25922. Description: microbe, parasite or virus in culture. As to conditions: Escherichia coli, ATCC25922, read-out: Triclosan MIC.
Assay [9] relates to C. albicans ATCC 10231.
Another assay concerns microorganisms. As to the kind of experiment: Triclosan plus sub-toxic levels of peptide on microbial growth. The assay is classed as cell-based. How it is done:
Effect of combinations of triclosan and sub-toxic levels of peptide on microbial growth is assessed. […] Thus, the potential use rate of triclosan as an antimicrobial is shown to be reduced.

Assay [10] has as its system all organisms tested except P. aeruginosa. Description: Triclosan plus sub-biocidal peptide, summary over organisms. The assay is classed as cell-based. The text has this: Thus, the potential use rate of triclosan as an antimicrobial is reduced.
Assay [11] has as its system K. pneumoniae ATCC 27736.
Assay [12] has as its system K. pneumoniae ATCC 27736. Description: microbe, parasite or virus in culture. Particulars: Klebsiella pneumoniae, ATCC27736, read-out: Triclosan MIC.
Assay [13] relates to P. aeruginosa ATCC 10145. As to the kind of experiment: microbe, parasite or virus in culture. Particulars: Pseudomonas aeruginosa, ATCC10145, read-out: Triclosan MIC.
Assay [14] has as its system S. aureus ATCC 33591 (MRSA). Description: microbe, parasite or virus in culture. Particulars: Staphylococcus aureus, read-out: Triclosan MIC.
A further assay has as its system E. coli. Description: Peptide-containing textile fiber, MIC. The class given is cell-based, Escherichia coli. Particulars: E. coli in LB media. The text has this:
Peptide compositions comprising peptides of the present invention and at least one biocide or germicide may be applied by coating or spinning effective amounts of peptide onto or into the desired polymer. The peptides may be prepared in an aqueous solution to use as a coating solution or combined with a polymer. […] A peptide and polymer solution or mixture may be made and undergo casting or formation to the desired shaped article, fiber or film. The shaped article, fiber or film may then be quenched in water or methanol, allowed to air dry or dry under an appropriate atmosphere to prevent oxidative reactions.
The resulting solution may be placed into a microscale spinning apparatus and fiber is formed while wet with methanol. The antimicrobial activity of the peptides may be tested in tubes containing LB media innoculated with the peptide-containing fiber and E. coli growing at log phase (1×10^6 to 1×10^7 cells/ml). Aliquots can be taken from the culture tube at periodic intervals and absorbance readings at 600 nm (uv/vis) can be measured in a microcuvette.

In a further assay the test system is P. aeruginosa. As to the kind of experiment: MIC of biocide actives and formulations, microtiter growth assay.
The test system of another assay is K. pneumoniae. The description is as above.
Where [15] appears, read: triclosan MIC with octanoyl-RR-NH-octyl at 0.5 ppm.
Where [16] appears, read: triclosan MIC with octanoyl-R-NH-octyl at 4 ppm.
Setting [17] is: P. aeruginosa, growth inhibited by >90%.
Where [18] appears, read: K. pneumoniae, growth inhibited by >90%.

With Nonanoyl-Arg-NH-nonyl, the MIC entry in assay [1] is “≦4 μg/ml”.

In the case of `CCCCCCCCNC(=O)[C@H](CCCNC(=N)N)NC(=O)CCCCCCC` [octanoyl-R-NH-octyl, octanoyl-R—NH-octyl], the “Peptide MIC” value in the assay with E. coli ATCC 25922 [2] (ATCC 25922, 19 h) is 8 µg/mL; in the assay on S. cerevisiae ATCC 9763 [3] (ATCC 9763, 19 h) it was 8 µg/mL; with P. aeruginosa ATCC 10145 [4] (ATCC 10145, 19 h), 8 µg/mL.

`Oc1cc(Cl)ccc1Oc1ccc(Cl)cc1Cl` [Triclosan, 2,4,4′-trichloro-2′-hydroxydiphenylether]: the MIC is 8 µg/mL (≈ 27.6 µM) with C. albicans ATCC 10231 [5]; 4 µg/mL (≈ 13.8 µM) in the assay with S. cerevisiae ATCC 9763 [7]; 2 ng/mL (≈ 0.00691 µM) with E. coli ATCC 25922 [8]; 0.061 µg/mL (≈ 0.211 µM) with K. pneumoniae ATCC 27736 [12]; above 250 µg/mL in the assay on P. aeruginosa ATCC 10145 [13]; 0.015 µg/mL (≈ 0.0518 µM) in assay [14]. Besides, the “Triclosan plus constant [peptide]” value is listed as 0.002 (0.5 ppm) μg/ml in [6] (setting [15]); <0.00003 (4 ppm) μg/ml with E. coli ATCC 25922 [2] (setting [16]); 4 (2 ppm) μg/ml in the assay on C. albicans ATCC 10231 [9] (triclosan MIC with octanoyl-RR-NH-octyl at 2 ppm); 2 (4 ppm) μg/ml in the assay on C. albicans ATCC 10231 [9] (triclosan MIC with octanoyl-RR-NH-octyl at 4 ppm); 2 (2 ppm) μg/ml in the assay with S. cerevisiae ATCC 9763 [3] (triclosan MIC with octanoyl-R-NH-octyl at 2 ppm); 0.031 (0.5 ppm) μg/ml in the assay with K. pneumoniae ATCC 27736 [11] (setting [15]). Besides, the “Triclosan plus constant [peptide]” value in the assay on K. pneumoniae ATCC 27736 [11] (triclosan MIC with octanoyl-RR-NH-octyl at 1 ppm) is 0.00003 (1 ppm) μg/ml; in the assay on P. aeruginosa ATCC 10145 [4] (setting [16]), >250 (4 ppm) μg/ml. The “inhibitory effect of triclosan with a peptide of the invention in sub-toxic amounts” value in the assay on microorganisms is on record as “substantially increase”. Besides, the “inhibitory effect of triclosan on addition of sub-biocidal amounts of peptide” value in [10] is “substantially increased”.

“Octanoyl-Arg-Phe-Phe-Arg-NH-octyl (Octanoyl-RFFR-{NH‑octyl})”: the MIC result against E. coli is listed as “≦4 μg/ml”.

Regarding Octanoyl-Arg-Trp-NH2, the MIC entry (against E. coli; in assay [1]) was “≦15 μg/ml” throughout.

On to Octanoyl-Arg-Arg-Arg-NH-octyl, for which the MIC entry with E. coli was “≦8 μg/ml”.

Turning to Octanoyl-Arg-Ala-NH-octyl, in assay [1], the MIC entry is recorded as “≦15 μg/ml”.

In the case of `O=[N+]([O-])C(Br)(CO)CO` [Myacide, 2-bromo-2-nitropropane-1,3-diol], the MIC was 1.3 µg/mL in the assay with P. aeruginosa (Pseudomonas aeruginosa) and 10 µg/mL in the assay on K. pneumoniae (Klebsiella pneumoniae).

Take `N#CC(Br)(Br)C(N)=O` [compound 7287, 2,2-dibromo-3-nitrilo propionamide]: the MIC with P. aeruginosa (setting [17]) and in the assay on K. pneumoniae (setting [18]) was 40.0 µg/mL in each case.

On to Octanoyl-Lys-Arg-NH-octyl, for which the MIC entry in assay [1] is “≦4 μg/ml”.

Regarding Nonanoyl-Arg-Arg-NH-nonyl, the MIC entry against E. coli is “≦2 μg/ml”.

Regarding `N#CSCSC#N` [MBT, methylene bis(thiocyanate)], the MIC in the assay with P. aeruginosa (setting [17]) and with K. pneumoniae (setting [18]) was 0.6 µg/mL in each case.

Regarding `CCCCCCCCCCCCNC(=N)N` [DGH, dodecylguanidine hydrochloride], the MIC in the assay with P. aeruginosa (Pseudomonas aeruginosa) is 10 µg/mL; in the assay on K. pneumoniae (Klebsiella pneumoniae) it was 2.5 µg/mL.

For the compound “Acetyl-Arg-Trp-Arg-Trp-NH2 (Ac-RWRW-NH2)”, the MIC result (with E. coli; in assay [1]) was “≦31 μg/ml” throughout.

In the case of `O=CCCCC=O` [Aqucar, glutaraldehyde], the MIC in the assay with P. aeruginosa (Pseudomonas aeruginosa) came out at 500 µg/mL; with K. pneumoniae (Klebsiella pneumoniae), 250 µg/mL.

For `CCCCCCCCNC(=O)[C@H](CCCNC(=N)N)NC(=O)[C@H](CCCNC(=N)N)NC(=O)CCCCCCC` [octanoyl-RR-NH-octyl, octanoyl-RR—NH-octyl], the “Peptide MIC” value is 2 µg/mL in assay [6] (ATCC 33591, 19 h); 8 µg/mL in the assay on C. albicans ATCC 10231 [9] (ATCC 10231, 19 h); 4 µg/mL in the assay on K. pneumoniae ATCC 27736 [11] (ATCC 27736, 19 h).

As to Octanoyl-Arg-Cys-NH-octyl, in assay [1], the MIC entry is given as “≦15 μg/ml”.

As to Octanoyl-Arg-Trp-Phe-NH2, the MIC result in the assay with E. coli was “≦15 μg/ml”.

On to Decanoyl-Arg-NH-decyl, for which the figures for the MIC result (against E. coli; in [1]) were “≦15 μg/ml” and “≦8 μg/ml”, respectively.

Take “n-alkyl (C12-40%, C14-50%, C16-10%) dimethylbenzylammonium chloride [Maquat]”: the MIC was determined as 7.8 µg/mL in the assay with P. aeruginosa (setting [17]) and 0.6 µg/mL with K. pneumoniae (setting [18]).
